Source: paper PMC11672294, “The Antipsychotic Drug Aripiprazole Suppresses Colorectal Cancer by Targeting LAMP2a to Induce RNH1/miR‐99a/mTOR‐Mediated Autophagy and Apoptosis” (Advanced Science, 2024)
Where a name gives a salt, the structure may show the parent alone. Read-outs that look alike come from different tables or passages of the source. Starred links: 1 amine or outer side, 2 acyl side, 3 side chain; linkers in the order of their positions; H or OH if unused. Positions of bridges follow the written chain, without caps; N, C: chain ends. Non-standard residues stand in square brackets, D forms with d. Residues, ends and D or L forms follow the SMILES beside them. *: point of attachment. hTyr(3S-OH,4S-OH,3'-OSO3H) = N[C@H](C(=O)O)[C@H](O)[C@@H](O)c1ccc(O)c(OS(=O)(=O)O)c1; pTerphenylCO(4''-OnC5H11) = CCCCCOc1ccc(-c2ccc(-c3ccc(C(=O)*)cc3)cc2)cc1; Orn(4R-OH,5R-OH) = O=C([C@H](C[C@@H](O)[C@@H](O)N[*:3])N[*:1])[*:2]; hTyr(3S-OH,4S-OH) = N[C@H](C(=O)O)[C@H](O)[C@@H](O)c1ccc(O)cc1; Pro(3S-OH,4S-Me) = C[C@H]1CN[C@H](C(=O)O)[C@H]1O; X1 = CCCCCOc1ccc(-c2cc(-c3ccc(C(=O)*)cc3)no2)cc1; Gln(3R-OH) = NC(=O)C[C@@H](O)[C@H](N)C(=O)O; Hyp = O=C(O)[C@@H]1C[C@@H](O)CN1

Tested on: HT29
Conditions: 72 h, relative to DMSO, 10 µM
Outline: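 HT29 viability used WST-1 reduction (2 h, 37 °C, A450) after 72 h of treatment; screening compounds were tested singly at 10 µM, with dimethyl sulfoxide as the comparison.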

Structure (SMILES) | Relative cell viability (%) [%] | Relative cell viability (%) (Relative cell viability (%)) [%]
CCCCCOc1ccc(-c2ccc(-c3ccc(C(=O)N[C@H]4C[C@@H](O)[C@@H](O)NC(=O)[C@@H]5[C@@H](O)[C@@H](C)CN5C(=O)[C@H]([C@@H](C)O)NC(=O)[C@H]([C@H](O)[C@@H](O)c5ccc(O)cc5)NC(=O)[C@@H]5C[C@@H](O)CN5C(=O)[C@H]([C@@H](C)O)NC4=O)cc3)cc2)cc1 [Anidulafungin (LY303366)] ({pTerphenylCO(4''-OnC5H11)}-[Orn(4R-OH,5R-OH)]T[Hyp][hTyr(3S-OH,4S-OH)]T[Pro(3S-OH,4S-Me)]; lactam 1-C) | 71.21 | –
CNC[C@H](O)c1ccc(O)c(O)c1 [Epinephrine HCl] | 70.87 | –
CC1CC(OC(=O)C(O)c2ccccc2)CC(C)(C)C1 (centres unmarked) [Cyclandelate] | 65.76 | –
C=CC(=O)N1CCC(Oc2cc3c(Nc4ccc(Cl)c(Cl)c4F)ncnc3cc2OC)CC1 [Poziotinib (HM781-36B)] | 68.8 | –
Cc1cnc(C(=O)O)c[n+]1[O-] [Acipimox] | 94.49 | –
Cc1ccc(-c2cc(C(F)(F)F)nn2-c2ccc(S(N)(=O)=O)cc2)cc1 [Celecoxib] | 69.63 | –
CCOC(=O)[C@H](CCc1ccccc1)N[C@@H](C)C(=O)N1CCC[C@H]1C(=O)O [Enalapril Maleate] | 98.82 | –
CN(C)C(=O)COC(=O)Cc1ccc(OC(=O)c2ccc(NC(=N)N)cc2)cc1 [Camostat Mesilate] | 140.8 | –
CN1CCC(=C2c3ccccc3C=Cc3ccccc32)CC1 [Cyproheptadine HCl] | 44.58 | –
O=C(Nc1cccc2c(=O)cc(-c3nnn[nH]3)oc12)c1ccc(OCCCCc2ccccc2)cc1 [Pranlukast] | 81.78 | –
NC(CO)C(=O)NNCc1ccc(O)c(O)c1O (centres unmarked) [Benserazide HCl] | 108.4 | –
CCCc1nc2c(C)cc(-c3nc4ccccc4n3C)cc2n1Cc1ccc(-c2ccccc2C(=O)O)cc1 [Telmisartan] | 47.46 | –
CO/N=C(\C(=O)N[C@@H]1C(=O)N2C(C(=O)OCOC(=O)C(C)(C)C)=C(/C=C\c3scnc3C)CS[C@H]12)c1csc(N)n1 [Cefditoren Pivoxil] | 66.53 | –
CC/C(=C(/CC)c1ccc(O)cc1)c1ccc(O)cc1 [Diethylstilbestrol] | 69.07 | –
Cc1c(N)nc([C@H](CC(N)=O)NC[C@H](N)C(N)=O)nc1C(=O)N[C@H](C(=O)N[C@H](C)[C@@H](O)[C@H](C)C(=O)N[C@H](C(=O)NCCc1nc(-c2nc(C(=O)NCCC[S+](C)C)cs2)cs1)[C@@H](C)O)[C@@H](O[C@@H]1O[C@@H](CO)[C@@H](O)[C@H](O)[C@@H]1O[C@H]1O[C@H](CO)[C@@H](O)[C@H](OC(N)=O)[C@@H]1O)c1c[nH]cn1 [Bleomycin Sulfate] | 74.3 | –
COCCc1ccc(OCC(O)CNC(C)C)cc1 (centres unmarked) [Metoprolol Tartrate] | 94.49 | –
O=C(NC1CCN(CCCCC2(C(=O)NCC(F)(F)F)c3ccccc3-c3ccccc32)CC1)c1ccccc1-c1ccc(C(F)(F)F)cc1 [Lomitapide Mesylate] | 0 | –
COc1cc([C@@H]2c3cc4c(cc3[C@@H](O[C@@H]3O[C@@H]5CO[C@@H](c6cccs6)O[C@H]5[C@H](O)[C@H]3O)[C@H]3COC(=O)[C@H]23)OCO4)cc(OC)c1O [Teniposide] | 34.75 | –
CCCc1cc(=O)[nH]c(=S)[nH]1 [Propylthiouracil] | 201.3 | –
O=c1[nH]c(=O)n([C@H]2C[C@H](O)[C@@H](CO)O2)cc1C(F)(F)F [Trifluridine] | 53.81 | –
CCCCCOc1ccc(-c2cc(-c3ccc(C(=O)N[C@H]4C[C@@H](O)[C@@H](O)NC(=O)[C@@H]5[C@@H](O)[C@@H](C)CN5C(=O)[C@H]([C@H](O)CC(N)=O)NC(=O)[C@H]([C@H](O)[C@@H](O)c5ccc(O)c(OS(=O)(=O)O)c5)NC(=O)[C@@H]5C[C@@H](O)CN5C(=O)[C@H]([C@@H](C)O)NC4=O)cc3)no2)cc1 [Micafungin Sodium] (X1-[Orn(4R-OH,5R-OH)]T[Hyp][hTyr(3S-OH,4S-OH,3'-OSO3H)][Gln(3R-OH)][Pro(3S-OH,4S-Me)]; lactam 1-C) | 77.58 | –

Structure (SMILES) | Relative cell viability (%) [%] | Relative cell viability (%) (Relative cell viability (%)) [%]
NCCc1c[nH]c2ccc(O)cc12 [Serotonin HCl] | 86.67 | –
O=C(O)C[C@H](O)C[C@H](O)/C=C/c1c(C2CC2)nc2ccccc2c1-c1ccc(F)cc1 [Pitavastatin Calcium] | 44.92 | –
NC(=O)c1cc(N2CC2)c([N+](=O)[O-])cc1[N+](=O)[O-] [CB1954] | 115 | –
O=C(O)/C=C/c1ccc(Cn2ccnc2)cc1 [Ozagrel HCl] | 127.9 | –
CCCCCCCCOc1ccccc1C(=O)Nc1ccc(C(=O)OCC[N+](C)(CC)CC)cc1 [Otilonium Bromide] | 59.22 | –
Cc1cc(Nc2ncc(Cl)c(Nc3ccccc3S(=O)(=O)C(C)C)n2)c(OC(C)C)cc1C1CCNCC1 [LDK378] | 0 | –
CCOC(=O)[C@H]1O[C@@H]1C(=O)N[C@@H](CC(C)C)C(=O)NCCC(C)C [Aloxistatin] | 100.9 | –
CCC1=C(C)CN(C(=O)NCCc2ccc(S(=O)(=O)NC(=O)N[C@H]3CC[C@H](C)CC3)cc2)C1=O [Glimepiride] | 64.95 | –
CCCCN1CCCCC1C(=O)Nc1c(C)cccc1C (centres unmarked) [Bupivacaine HCl] | 106.7 | –
Cc1ccc(NC(=O)c2ccc(CN3CC[C@H](N(C)C)C3)c(C(F)(F)F)c2)cc1Nc1nccc(-c2cncnc2)n1 [Bafetinib (INNO-406)] | 4.206 | –
NC[C@H](O)c1ccc(O)c(O)c1 [Noradrenaline bitartrate monohydrate] | 75.24 | –
C#CCN[C@@H]1CCc2ccccc21 [Rasagiline Mesylate] | 103.1 | –
Cc1cccc(C)c1OCC(C)N (centres unmarked) [Mexiletine HCl] | 84.85 | –
COC(=O)[C@H](Cc1ccccc1)NC(=O)[C@@H](N)CC(=O)O [Aspartame] (H-Asp-Phe-OMe) | 199.9 | –
C[C@@](Cc1ccc(O)c(O)c1)(NN)C(=O)O [Carbidopa] | 97.03 | –
CC(C)(C)c1ccc(C(=O)CCCN2CCC(OC(c3ccccc3)c3ccccc3)CC2)cc1 [Ebastine] | 13.94 | –
Cc1nc2c([nH]1)-c1ccccc1N(C(=O)c1ccc(NC(=O)c3ccccc3-c3ccccc3)cc1)CC2 [Conivaptan HCl] | 109 | –
CC(C)(O)c1ccccc1CC[C@@H](SCC1(CC(=O)O)CC1)c1cccc(/C=C/c2ccc3ccc(Cl)cc3n2)c1 [Montelukast Sodium] | 74.85 | –
CCOc1cc(N)c(Cl)cc1C(=O)NCC1CN(Cc2ccc(F)cc2)CCO1 (centres unmarked) [Mosapride Citrate] | 38.47 | –
Cc1c(C(=O)NN2CCCCC2)nn(-c2ccc(Cl)cc2Cl)c1-c1ccc(Cl)cc1 [Rimonabant] | 79.61 | –
CCCN(CCc1cccs1)[C@H]1CCc2c(O)cccc2C1 [Rotigotine] | 62.12 | –

Structure (SMILES) | Relative cell viability (%) [%] | Relative cell viability (%) (Relative cell viability (%)) [%]
O=c1[nH]c(=O)n([C@H]2C[C@H](O)[C@@H](CO)O2)cc1F [Floxuridine] | 44.7 | –
OCCOc1ccc(/C(=C(/CCCl)c2ccccc2)c2ccccc2)cc1 [Ospemifene] | 80.303 | –
CC(C(=O)O)c1ccc2c(c1)CC(=O)c1ccccc1S2 (centres unmarked) [Zaltoprofen] | 88.35 | –
CCC1=C[C@@H]2CN(C1)Cc1c([nH]c3ccccc13)[C@@](C(=O)OC)(c1cc3c(cc1OC)N(C)[C@H]1[C@@](O)(C(=O)OC)[C@H](OC(C)=O)[C@]4(CC)C=CCN5CC[C@]31[C@@H]54)C2 [Vinorelbine Tartrate] | 15.76 | –
COc1ccc(Cl)c(Nc2nc3ccccc3nc2NS(=O)(=O)c2cccc(NC(=O)C(C)(C)N)c2)c1 [Pilaralisib (XL147)] | 48.29 | –
Cc1c(-c2ccc(O)cc2)n(Cc2ccc(OCCN3CCCCCC3)cc2)c2ccc(O)cc12 [Bazedoxifene HCl] | – | 91.36
COc1ccc(C(=O)c2ccccc2)c(O)c1 [Oxybenzone] | 118.8 | –
CO[C@H]1/C=C/O[C@@]2(C)Oc3c(C)c(O)c4c(O)c(c(/C=N/N5CCN(C)CC5)c(O)c4c3C2=O)NC(=O)/C(C)=C\C=C\[C@H](C)[C@H](O)[C@@H](C)[C@@H](O)[C@@H](C)[C@H](OC(C)=O)[C@@H]1C [Rifampin] | 76.69 | –
CCOC(=O)[C@H](CCc1ccccc1)N[C@@H](C)C(=O)N1[C@H](C(=O)O)C[C@@H]2CCC[C@@H]21 [Ramipril] | 75.42 | –
CCC(=O)O[C@]1(C(=O)SCF)[C@H](C)C[C@H]2[C@@H]3C[C@H](F)C4=CC(=O)C=C[C@]4(C)[C@@]3(F)[C@@H](O)C[C@@]21C [Fluticasone propionate] | 173.6 | –
Sc1ncnc2nc[nH]c12 [Mercaptopurine (6-MP)] | 52.49 | –
Clc1ccc(COC(Cn2ccnc2)c2ccc(Cl)cc2Cl)c(Cl)c1 (centres unmarked) [Miconazole Nitrate] | 184.3 | –
Nc1nc2c(ncn2COCCO)c(=O)[nH]1 [Aciclovir] | 89.41 | –
Cc1cc(Nc2cc(CN3CCOCC3)c3nc(C)c(Cc4ccc(Cl)cc4F)n3n2)n[nH]1 [LY2784544] | 102.6 | –
C[N+](C)(C)C[C@H](O)CC(=O)[O-] [L-carnitine] | 116.1 | –
CC(C)C(=O)Nc1ccc([N+](=O)[O-])c(C(F)(F)F)c1 [Flutamide] | 100.9 | –
N#Cc1ccccc1-c1cc(-c2ccccn2)cn(-c2ccccc2)c1=O [Perampanel] | 104.7 | –
Cc1cccc(C(C)c2cnc[nH]2)c1C (centres unmarked) [Medetomidine HCl] | 57.77 | –
Cc1cccc(Cc2c[nH]cn2)c1C [Detomidine HCl] | 118.5 | –
CCCC(CCC)C(=O)O[C@H]1C[C@H]2CC[C@@H](C1)[N+]2(C)C [Anisotropine Methylbromide] | 55.76 | –
